≈ marks a conversion by molar mass, not a printed value. Calls of active or inactive are those of the source. The rule behind the calls is not given here.
Tests used:
[1] = target: Alpha-2A adrenergic receptor (Homo sapiens) (UniProt P08913); test: Inhibition of adrenergic alpha-2A receptor (unknown origin) at 10 uM relative to control
[2] = target: Alpha-1A adrenergic receptor (Homo sapiens) (UniProt P35348); test: Inhibition of adrenergic alpha-1A receptor (unknown origin) at 1 uM relative to control
[3] = target: D(1A) dopamine receptor (Homo sapiens) (UniProt P21728); test: Inhibition of dopamine D1 receptor (unknown origin) at 10 uM relative to control
[4] = tested on: Rattus norvegicus; test: Antidepressant-like activity in Wistar rat assessed as minimum effective dose causing reduction in immobility time after oral administration with compound 15 mins prior to testing and measured for 5 mins test period by Porsolt-forced swim test; format: functional; settings: 20 min, read-out: MED
[5] = target: Sodium-dependent dopamine transporter (Homo sapiens) (UniProt Q01959); test: Inhibition of dopamine transporter (unknown origin) at 10 uM relative to control
[6] = tested on: Rattus norvegicus; test: In vivo biased agonist activity at 5-HT1A receptor in rat prefrontal brain cortex assessed as increase in ERK1/2 phosphorylation levels at […], po administered as single dose by Alphalisa assay; format: functional, organism-based; settings: time 5-60 min, TDE = time-dependent effect
[7] = Protein binding in human plasma; format: ADME, cell-free; settings: read-out: PPB (converted)
[8] = target: Alpha-1B adrenergic receptor (Homo sapiens) (UniProt P35368); test: Inhibition of adrenergic alpha-1B receptor (unknown origin) at 1 uM relative to control
[9] = target: Tyrosine-protein kinase Lck (Homo sapiens) (UniProt P06239); test: Inhibition of LCK (unknown origin) at 10 uM relative to control
[10] = target: 5-hydroxytryptamine receptor 2A (Homo sapiens) (UniProt P28223); test: Inhibition of 5-HT2A (unknown origin) at 10 uM relative to control
[11] = target: CYP3A4 (Homo sapiens, UniProt P08684); test: Inhibition of human recombinant CYP3A4 at 10 uM relative to control; format: ADME
[12] = tested on: Rattus norvegicus; test: Antidepressant-like activity in Wistar rat assessed as reduction in immobility time at 0.04 to […], po administered 60 mins prior to testing and measured for 5 mins test period in presence of 5-HT1A antagonist WAY100635 by Porsolt-forced swim test; format: functional, organism-based; settings: dose lower 0.04 mg/kg, dose upper […], time 65.0 min
[13] = Toxicity in Wistar rat assessed as effect on flat body posture at 0.04 to […], po observed after 60 mins post treatment; format: organism-based; settings: in vivo, 1 h, dose 0.04-2.5 mg/kg
[14] = target: Sodium-dependent noradrenaline transporter (Homo sapiens) (UniProt P23975); test: Inhibition of norepinephrine transporter (unknown origin) at 10 uM relative to control
[15] = tested on: Rattus norvegicus; test: Antidepressant-like activity in Wistar rat assessed as serum concentration causing 50% reduction in immobility time after oral administration of compound and measured after 15 mins by Porsolt-forced swim test; format: functional
[16] = target: D(2) dopamine receptor (Homo sapiens, UniProt P14416); test: Inhibition of dopamine D2S receptor (unknown origin) at 1 uM relative to control
[17] = target: Glucocorticoid receptor (Homo sapiens) (UniProt P04150); test: Inhibition of glucocorticoid receptor (unknown origin) at 10 uM relative to control
[18] = organism: Homo sapiens; test: Inhibition of potassium channel (unknown origin) at 10 uM relative to control
[19] = target: 5-hydroxytryptamine receptor 6 (Homo sapiens) (UniProt P50406); test: Inhibition of 5-HT6 (unknown origin) at 1 uM relative to control
[20] = tested on: Rattus norvegicus; test: Antidepressant-like activity in Wistar rat assessed as maximum effective dose causing reduction in immobility time after oral administration with compound 60 mins prior to testing and measured for 5 mins test period by Porsolt-forced swim test; format: functional; settings: time 65 min; 1.083 h
[21] = target: Muscarinic acetylcholine receptor M1 (Homo sapiens) (UniProt P11229); test: Displacement of [3H]-scopolamine from human recombinant muscarinic M1 receptor stably expressed in CHO-K1 cell membranes at 1 uM measured after 120 mins by microbeta2 scintillation counting analysis relative to control; settings: Cell membrane
[22] = in vitro; settings: human, Caco-2, pH 6.5
[23] = target: Mu-type opioid receptor (Homo sapiens) (UniProt P35372); test: Inhibition of mu opioid receptor (unknown origin) at 10 uM relative to control
[24] = target: Cannabinoid receptor 2 (Homo sapiens) (UniProt P34972); test: Inhibition of cannabinoid receptor 2 (unknown origin) at 10 uM relative to control
[25] = Effect on spontaneous locomotor activity in Wistar rat at 0.04 to […], po after 60 mins in presence of 5-HT1A antagonist WAY100635 by open field test; format: organism-based; settings: in vivo, 1 h, dose 0.04-2.5 mg/kg
[26] = Aqueous solubility of compound in pH 7.4 PBS buffer at 200 uM; format: physicochemical
[27] = target: MAO-A (Homo sapiens, UniProt P21397); test: Inhibition of MAO-A (unknown origin) at 10 uM relative to control
[28] = target: Muscarinic acetylcholine receptor M3 (Homo sapiens) (UniProt P20309); test: Inhibition of muscarinic M3 receptor (unknown origin) at 10 uM relative to control
[29] = target: Muscarinic acetylcholine receptor M4 (Homo sapiens) (UniProt P08173); test: Inhibition of muscarinic M4 receptor (unknown origin) at 1 uM relative to control
[30] = Cmax in Wistar rat brain at […], po measured after 60 mins by HPLC analysis; format: ADME, organism-based; parameters: route oral, dose 2.5 mg/kg, time 60 min
[31] = target: hERG (KCNH2) (Homo sapiens, UniProt Q12809); test: Inhibition of human ERG at 0.1 uM by patch clamp technique relative to control
[32] = Permeability of compound across basolateral to apical side in human Caco-2 cells at pH 7.4; format: ADME, cell-based; settings: Caco-2, pH 7.4, read-out: permeability
[33] = target: Kappa-type opioid receptor (Homo sapiens) (UniProt P41145); test: Inhibition of kappa opioid receptor (unknown origin) at 10 uM relative to control
[34] = tested on: Rattus norvegicus; test: In vivo biased agonist activity at 5-HT1A receptor in rat prefrontal brain cortex assessed as increase in ERK1/2 phosphorylation levels at […], po administered as single dose measured after 30 mins by Alphalisa assay; format: functional, organism-based
[35] = organism: Homo sapiens; test: Inhibition of L-type calcium channel dihydropyridine binding site (unknown origin) at 10 uM relative to control
[36] = Apparent volume of distribution during terminal phase in Wistar rat at […], po measured after 60 mins by HPLC analysis; format: ADME, organism-based; settings: in vivo, dose 2.5 mg/kg, read-out: Vz/F
[37] = target: 5-hydroxytryptamine receptor 2A (Homo sapiens) (UniProt P28223); test: Displacement of [3H]-ketanserin from human recombinant 5-HT2A receptor stably expressed in CHO-K1 cell membranes at 1 uM measured after 90 mins by microbeta2 scintillation counting analysis relative to control; settings: Cell membrane
[38] = target: Sodium-dependent serotonin transporter (Homo sapiens) (UniProt P31645); test: Inhibition of serotonin transporter (unknown origin) at 10 uM relative to control
[39] = tested on: MDCK-II; test: Inhibition of P-gp in human MDR1-MDCKII cells at 10 uM relative to control; format: cell-based; settings: Canis lupus familiaris

5-hydroxytryptamine receptor 2A (Homo sapiens), sequence (P28223 whole entry): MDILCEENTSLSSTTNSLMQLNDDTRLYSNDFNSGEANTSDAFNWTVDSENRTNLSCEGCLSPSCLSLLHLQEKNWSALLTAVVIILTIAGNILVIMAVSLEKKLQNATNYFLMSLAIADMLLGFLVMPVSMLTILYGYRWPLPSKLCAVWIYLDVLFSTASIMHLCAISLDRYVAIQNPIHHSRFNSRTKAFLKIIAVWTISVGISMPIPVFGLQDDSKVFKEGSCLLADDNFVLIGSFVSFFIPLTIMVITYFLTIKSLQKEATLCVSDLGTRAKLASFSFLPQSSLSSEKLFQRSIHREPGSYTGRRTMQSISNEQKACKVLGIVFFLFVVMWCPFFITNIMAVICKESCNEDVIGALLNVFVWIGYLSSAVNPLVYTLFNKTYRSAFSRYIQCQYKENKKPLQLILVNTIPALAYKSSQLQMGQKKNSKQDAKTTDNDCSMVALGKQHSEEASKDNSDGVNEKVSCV
Glucocorticoid receptor (Homo sapiens), sequence (P04150 whole entry): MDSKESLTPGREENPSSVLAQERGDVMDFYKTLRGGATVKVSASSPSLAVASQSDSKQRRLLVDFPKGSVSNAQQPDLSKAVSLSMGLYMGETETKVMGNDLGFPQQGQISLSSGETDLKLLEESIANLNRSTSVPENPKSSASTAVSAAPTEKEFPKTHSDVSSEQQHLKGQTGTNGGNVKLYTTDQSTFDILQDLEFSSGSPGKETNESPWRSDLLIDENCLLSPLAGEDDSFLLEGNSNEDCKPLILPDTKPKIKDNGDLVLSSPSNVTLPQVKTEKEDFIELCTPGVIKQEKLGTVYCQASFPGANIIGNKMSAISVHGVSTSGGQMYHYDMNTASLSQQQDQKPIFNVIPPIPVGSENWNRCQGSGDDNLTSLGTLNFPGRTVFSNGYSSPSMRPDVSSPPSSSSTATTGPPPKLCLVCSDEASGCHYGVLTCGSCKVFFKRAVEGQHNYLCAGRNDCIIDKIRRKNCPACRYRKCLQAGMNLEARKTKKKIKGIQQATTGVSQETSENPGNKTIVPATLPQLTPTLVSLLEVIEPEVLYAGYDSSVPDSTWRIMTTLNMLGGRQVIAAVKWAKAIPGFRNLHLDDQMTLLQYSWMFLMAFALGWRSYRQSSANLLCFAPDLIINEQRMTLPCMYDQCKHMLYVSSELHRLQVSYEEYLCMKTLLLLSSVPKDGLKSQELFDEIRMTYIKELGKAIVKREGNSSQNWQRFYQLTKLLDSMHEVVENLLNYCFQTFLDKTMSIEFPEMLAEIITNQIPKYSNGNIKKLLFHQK
Sodium-dependent dopamine transporter (Homo sapiens), sequence (Q01959 whole entry): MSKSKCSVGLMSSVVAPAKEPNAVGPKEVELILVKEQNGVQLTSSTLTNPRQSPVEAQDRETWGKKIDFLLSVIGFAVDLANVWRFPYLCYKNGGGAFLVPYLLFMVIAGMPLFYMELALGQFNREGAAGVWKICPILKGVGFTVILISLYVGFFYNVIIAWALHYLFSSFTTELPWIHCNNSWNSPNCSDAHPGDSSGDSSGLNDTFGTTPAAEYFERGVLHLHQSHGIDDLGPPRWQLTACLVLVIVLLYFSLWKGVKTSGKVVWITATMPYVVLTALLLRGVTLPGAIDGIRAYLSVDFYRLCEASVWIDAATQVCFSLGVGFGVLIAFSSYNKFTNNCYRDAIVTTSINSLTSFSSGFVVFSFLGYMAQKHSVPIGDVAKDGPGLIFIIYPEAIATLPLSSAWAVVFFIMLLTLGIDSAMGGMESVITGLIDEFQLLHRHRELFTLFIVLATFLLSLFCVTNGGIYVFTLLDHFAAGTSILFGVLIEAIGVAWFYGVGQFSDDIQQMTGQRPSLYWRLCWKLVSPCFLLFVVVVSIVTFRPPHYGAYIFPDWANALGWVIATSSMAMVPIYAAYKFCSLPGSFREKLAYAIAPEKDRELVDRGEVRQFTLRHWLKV
Sodium-dependent serotonin transporter (Homo sapiens), sequence (P31645 whole entry, looked up): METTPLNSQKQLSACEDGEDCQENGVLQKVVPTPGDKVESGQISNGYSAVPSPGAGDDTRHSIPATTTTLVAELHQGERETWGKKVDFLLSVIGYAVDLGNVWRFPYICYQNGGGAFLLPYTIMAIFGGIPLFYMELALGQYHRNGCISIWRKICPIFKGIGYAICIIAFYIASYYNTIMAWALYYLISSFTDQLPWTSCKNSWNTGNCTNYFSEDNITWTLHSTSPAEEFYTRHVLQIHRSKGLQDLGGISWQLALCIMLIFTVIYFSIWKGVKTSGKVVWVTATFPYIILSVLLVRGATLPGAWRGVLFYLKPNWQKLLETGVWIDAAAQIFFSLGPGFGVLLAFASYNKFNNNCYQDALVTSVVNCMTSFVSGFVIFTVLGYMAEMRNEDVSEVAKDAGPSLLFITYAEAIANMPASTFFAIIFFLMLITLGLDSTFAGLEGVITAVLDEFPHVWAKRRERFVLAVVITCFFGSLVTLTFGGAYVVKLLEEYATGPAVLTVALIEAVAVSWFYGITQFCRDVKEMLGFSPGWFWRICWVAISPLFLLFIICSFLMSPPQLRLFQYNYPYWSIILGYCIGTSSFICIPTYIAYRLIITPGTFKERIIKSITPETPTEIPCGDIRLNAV
Alpha-1B adrenergic receptor (Homo sapiens), sequence (P35368 whole entry): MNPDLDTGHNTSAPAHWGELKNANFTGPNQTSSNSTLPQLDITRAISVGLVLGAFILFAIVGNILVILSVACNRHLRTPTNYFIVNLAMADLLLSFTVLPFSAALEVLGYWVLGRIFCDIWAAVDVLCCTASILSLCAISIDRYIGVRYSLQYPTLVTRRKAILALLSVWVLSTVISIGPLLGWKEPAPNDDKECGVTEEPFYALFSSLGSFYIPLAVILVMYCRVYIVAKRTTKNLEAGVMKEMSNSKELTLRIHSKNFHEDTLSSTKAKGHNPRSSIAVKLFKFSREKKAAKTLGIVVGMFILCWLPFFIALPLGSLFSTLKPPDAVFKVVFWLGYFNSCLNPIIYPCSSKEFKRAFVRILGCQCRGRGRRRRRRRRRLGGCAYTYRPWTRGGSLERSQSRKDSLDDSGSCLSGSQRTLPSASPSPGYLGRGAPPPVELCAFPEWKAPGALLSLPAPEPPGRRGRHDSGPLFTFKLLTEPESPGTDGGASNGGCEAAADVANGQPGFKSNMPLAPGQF
Kappa-type opioid receptor (Homo sapiens), sequence (P41145 whole entry): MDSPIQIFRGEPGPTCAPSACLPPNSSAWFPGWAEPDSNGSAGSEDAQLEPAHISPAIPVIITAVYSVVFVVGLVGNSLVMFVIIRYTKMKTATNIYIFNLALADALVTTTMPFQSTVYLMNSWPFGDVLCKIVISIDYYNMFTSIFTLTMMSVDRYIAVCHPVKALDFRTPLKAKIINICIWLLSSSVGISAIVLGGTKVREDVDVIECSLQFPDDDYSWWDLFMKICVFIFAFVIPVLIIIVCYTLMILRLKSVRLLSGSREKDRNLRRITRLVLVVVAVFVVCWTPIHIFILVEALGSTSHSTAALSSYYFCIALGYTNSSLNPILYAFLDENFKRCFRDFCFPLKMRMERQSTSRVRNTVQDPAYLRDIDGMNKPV
D(2) dopamine receptor, sequence (P14416 whole entry): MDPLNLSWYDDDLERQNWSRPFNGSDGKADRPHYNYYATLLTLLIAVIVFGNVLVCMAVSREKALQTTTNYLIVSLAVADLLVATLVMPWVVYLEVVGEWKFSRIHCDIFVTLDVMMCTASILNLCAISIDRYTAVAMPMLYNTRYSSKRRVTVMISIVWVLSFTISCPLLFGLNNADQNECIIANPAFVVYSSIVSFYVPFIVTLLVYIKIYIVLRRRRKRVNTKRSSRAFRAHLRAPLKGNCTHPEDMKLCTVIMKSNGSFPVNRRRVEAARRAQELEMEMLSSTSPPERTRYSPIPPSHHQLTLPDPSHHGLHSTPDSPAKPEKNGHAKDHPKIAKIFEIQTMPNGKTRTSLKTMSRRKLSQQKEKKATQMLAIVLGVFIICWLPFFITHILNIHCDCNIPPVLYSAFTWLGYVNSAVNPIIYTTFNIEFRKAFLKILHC
Alpha-2A adrenergic receptor (Homo sapiens), sequence (P08913 whole entry): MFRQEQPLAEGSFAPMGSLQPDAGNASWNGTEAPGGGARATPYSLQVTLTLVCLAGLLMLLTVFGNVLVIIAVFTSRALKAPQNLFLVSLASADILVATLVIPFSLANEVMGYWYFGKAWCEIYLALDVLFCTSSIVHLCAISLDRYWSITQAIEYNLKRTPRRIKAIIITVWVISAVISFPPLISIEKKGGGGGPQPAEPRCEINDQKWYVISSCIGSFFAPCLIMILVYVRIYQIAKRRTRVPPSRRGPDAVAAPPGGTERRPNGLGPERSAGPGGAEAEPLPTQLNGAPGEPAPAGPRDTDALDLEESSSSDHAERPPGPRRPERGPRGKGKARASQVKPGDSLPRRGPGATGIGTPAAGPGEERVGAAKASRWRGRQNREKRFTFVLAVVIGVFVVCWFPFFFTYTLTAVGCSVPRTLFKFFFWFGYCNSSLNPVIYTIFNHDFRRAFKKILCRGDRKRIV
Muscarinic acetylcholine receptor M4 (Homo sapiens), sequence (P08173 whole entry): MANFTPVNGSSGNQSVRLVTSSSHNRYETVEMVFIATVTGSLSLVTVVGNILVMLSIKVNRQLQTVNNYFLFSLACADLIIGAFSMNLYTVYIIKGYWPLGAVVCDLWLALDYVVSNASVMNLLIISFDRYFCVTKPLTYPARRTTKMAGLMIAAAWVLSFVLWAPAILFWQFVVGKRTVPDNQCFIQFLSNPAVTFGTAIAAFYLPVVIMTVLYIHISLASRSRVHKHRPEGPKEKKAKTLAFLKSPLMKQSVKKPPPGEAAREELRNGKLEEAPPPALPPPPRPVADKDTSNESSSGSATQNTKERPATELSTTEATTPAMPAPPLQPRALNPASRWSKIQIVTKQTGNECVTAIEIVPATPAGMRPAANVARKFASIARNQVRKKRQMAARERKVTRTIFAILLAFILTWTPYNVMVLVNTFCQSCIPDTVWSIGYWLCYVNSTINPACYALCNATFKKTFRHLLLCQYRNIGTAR

## O=C(c1ccc(F)c(Cl)c1)N1CCC(F)(CNCCOc2ccccn2)CC1
[1]
  inhibition: 94.3%
[2]
  inhibition: 87.6%
[3]
  inhibition: 38.2%
[4]
  minimal effective dose: 0.16 mg/kg
[5]
  inhibition: 20.4%
[6]
  Activity: Tde
[7]
  fraction unbound: 0.068
[8]
  inhibition: 32.2%
[9]
  inhibition: 18.2%
[10]
  inhibition: 9%
[11]
  inhibition at 10 µM: 23.2%
[12]
  Activity: inactive
[13]
  Activity: Non-Toxic
[14]
  inhibition: -2%
[15]
  EC: 6.76 ng/mL
[16]
  inhibition: 9.5%
[17]
  inhibition: -5.1%
[18]
  inhibition: 3.8%
[19]
  inhibition: 12.1%
[20]
  ED: 2.5 mg/kg
[21]
  Activity: < 50%
[22]
  Papp A→B: 25.9 ×10⁻⁶ cm/s
[23]
  inhibition: 42.9%
[24]
  inhibition: -3.1%
[25]
  Activity: Non-Toxic
[26]
  solubility at 200 µM: 192 µM (≈ 78.8 µg/mL)
[27]
  inhibition at 10 µM: -3.6%
[28]
  inhibition: 9.7%
[29]
  inhibition: 8.8%
[30]
  Cmax at 1 h: 124 ng/mL
[31]
  inhibition at 0.1 µM: 0.1%
[32]
  Papp B→A: 22.4 ×10⁻⁶ cm/s
[33]
  inhibition: 34.6%
[34]
  Activity: Active
[35]
  inhibition: 18.2%
[36]
  Vd/F at 1 h: 35.9 L/kg
[37]
  Activity: < 50%
[38]
  inhibition: 0.9%
[39]
  inhibition: 6.5%

From ChEMBL document CHEMBL4706479, “Novel Aryloxyethyl Derivatives of 1-(1-Benzoylpiperidin-4-yl)methanamine as the Extracellular Regulated Kinases 1/2 (ERK1/2) Phosphorylation-Preferring Serotonin 5-HT Receptor-Biased Agonists with Robust Antidepressant-like Activity” (J Med Chem, 2019)
